Assay results reported in article PMC7587337, “Kaempferol Facilitated Extinction Learning in Contextual Fear Conditioned Rats via Inhibition of Fatty-Acid Amide Hydrolase” (Molecules, 2020).

Assays:
[1] = biological target: T1, fatty-acid amide hydrolase (FAAH) (Homo sapiens, UniProt O00519); assay: FAAH inhibitor screening assay kit (Cayman […]), dose-response […]; type: biochemical
T1 sequence (O00519 1-579): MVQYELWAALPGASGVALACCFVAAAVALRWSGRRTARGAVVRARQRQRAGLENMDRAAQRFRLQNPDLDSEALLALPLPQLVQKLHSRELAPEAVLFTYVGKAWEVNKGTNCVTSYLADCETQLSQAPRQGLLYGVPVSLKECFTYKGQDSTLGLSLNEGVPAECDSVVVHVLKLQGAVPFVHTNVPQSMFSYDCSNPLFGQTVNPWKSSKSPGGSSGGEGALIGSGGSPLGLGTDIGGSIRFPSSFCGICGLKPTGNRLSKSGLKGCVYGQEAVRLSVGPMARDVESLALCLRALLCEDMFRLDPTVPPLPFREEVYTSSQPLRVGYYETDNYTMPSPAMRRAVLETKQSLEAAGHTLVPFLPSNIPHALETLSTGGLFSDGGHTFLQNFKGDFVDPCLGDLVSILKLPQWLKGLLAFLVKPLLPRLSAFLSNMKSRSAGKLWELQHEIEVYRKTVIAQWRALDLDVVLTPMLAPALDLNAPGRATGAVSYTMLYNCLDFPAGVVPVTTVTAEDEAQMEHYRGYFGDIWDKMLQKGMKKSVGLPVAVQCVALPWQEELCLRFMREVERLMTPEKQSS

[2] = biological target: T1, fatty-acid amide hydrolase (FAAH); assay: FAAH inhibitor screening assay kit (Cayman […]), percent inhibition at […]; type: biochemical

Row | IC50 [1] | Compound | inhibition at 10 µM [2]
1 | 1060 nM | O=c1c(O)c(-c2ccc(O)cc2)oc2cc(O)cc(O)c12 [kaempferol] | –
2 | – | O=C(Oc1ccc([N+](=O)[O-])cc1)N1CCN(Cc2cccc(Oc3ccccc3)c2)CC1 [JZL195] | 88 ± 1.26%
